What was measured:
giant foxtail = assay: Test B pre/postemergence giant foxtail; assay type: in vivo, Setaria faberii
Procedure, shortened: (§1)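 Response is a visual 0-to-10 score relative to untreated plants, where 0 means no effect and 10 means complete control, taken twelve to sixteen days after application. Treatments went onto soil at planting and onto foliage of 1- to 4-leaf plants, using a surfactant-containing non-phytotoxic solvent.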

wheat = assay: Test B pre/postemergence wheat; assay type: in vivo, Triticum aestivum
Procedure, shortened: as §1

purple nutsedge = assay: Test B pre/postemergence purple nutsedge; assay type: in vivo, Cyperus rotundus
Procedure, shortened: as §1

pigweed = assay: Test B pre/postemergence pigweed; assay type: in vivo, Amaranthus retroflexus
Procedure, shortened: as §1

blackgrass = assay: Test B pre/postemergence blackgrass; assay type: in vivo, Alopecurus myosuroides
Procedure, shortened: as §1

duck salad = assay: Test B flood test duck salad; assay type: in vivo, Heteranthera limosa
Procedure, shortened: (§2)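 Each value is a visual injury score relative to controls, with 10 meaning complete control and 0 no effect. Evaluation took place twelve to sixteen days after the 2-leaf-stage plants were treated and kept in the greenhouse.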

wild oat = assay: Test B pre/postemergence wild oat; assay type: in vivo, Avena fatua
Procedure, shortened: as §1

morningglory = assay: Test B pre/postemergence morningglory; assay type: in vivo, Ipomoea hederacea
Procedure, shortened: as §1

bedstraw = assay: Test B pre/postemergence bedstraw; assay type: in vivo, Galium aparine
Procedure, shortened: as §1

cocklebur = assay: Test B pre/postemergence cocklebur; assay type: in vivo, Xanthium strumarium
Procedure, shortened: as §1

smallflower flatsedge = assay: Test B flood test smallflower flatsedge; assay type: in vivo, Cyperus difformis
Procedure, shortened: as §2

velvetleaf = assay: Test B pre/postemergence velvetleaf; assay type: in vivo, Abutilon theophrasti
Procedure, shortened: as §1

surinam grass = assay: Test B pre/postemergence surinam grass; assay type: in vivo, Brachiaria decumbens
Procedure, shortened: as §1

soybean = assay: Test B pre/postemergence soybean; assay type: in vivo, Glycine max
Procedure, shortened: as §1

rape = assay: Test B pre/postemergence rape; assay type: in vivo, Brassica napus
Procedure, shortened: as §1

bamyardgrass = assay: Test B flood test barnyardgrass; assay type: in vivo, Echinochloa crus-galli
Procedure, shortened: as §2

[1] = Preemergence, Rate 62 g/ha, scale of 0 to 10 where 0 is no effect and 10 is complete control
[2] = Preemergence, Rate 125 g/ha, 0 is no effect, 10 is complete control
[3] = Preemergence, Rate 250 g/ha, scale 0 to 10, 0 is no effect, 10 is complete control
[4] = Preemergence, Rate 500 g/ha, scale of 0 to 10 where 0 is no effect and 10 is complete control
[5] = Rate 62 g/ha, Postemergence, scale of 0 to 10 where 0 is no effect and 10 is complete control
[6] = Rate 125 g/ha, Postemergence, scale 0 to 10
[7] = Rate 500 g/ha, Postemergence, scale 0 to 10
[8] = Rate 62 g/ha, headed Pre-emergence (flood test species), scale 0 to 10 (0 no effect, 10 complete control)
[9] = Rate 125 g/ha, Pre-emergence, flood test species, scale 0 to 10 where 0 is no effect and 10 is complete control
[10] = Rate 250 g/ha, Pre-emergence, flood-test species, scale 0 to 10, 0 is no effect, 10 is complete control
[11] = Rate 500 g/ha, headed Pre-emergence (flood test species), scale 0 to 10 (0 no effect, 10 complete control)

Cc1nc(C)c(-n2c(=O)on(C(=O)N(c3ccccc3)C(C)C)c2=O)s1 [Compound 197]
3: Plant response rating, Giant foxtail (giant foxtail; [4]) | Giant foxtail plant response rating (giant foxtail; [7]) | Morningglory plant response rating (morningglory; [5])
5: Morningglory plant response rating (morningglory; [6]) | Plant response rating (0 to 10; 0 is no effect, 10 is complete control), Morningglory (morningglory; Rate 250 g/ha, Postemergence)
0: Giant foxtail plant response rating (giant foxtail; [1]) | Giant foxtail plant response rating (0 to 10 scale) (giant foxtail; [2]) | Giant foxtail plant response rating (giant foxtail; [3]) | Giant foxtail plant response rating (giant foxtail; [5]) | Giant foxtail plant response rating (giant foxtail; [6]) | Plant response rating (0 to 10; 0 is no effect, 10 is complete control), Giant foxtail (giant foxtail; Rate 250 g/ha, Postemergence) | Wheat plant response rating (wheat; [1]) | Wheat plant response rating (wheat; [3]) | Plant response rating, Wheat (wheat; [4]) | Wheat plant response rating (wheat; [5]) | Wheat plant response rating (wheat; [6]) | Plant response rating (0 to 10; 0 is no effect, 10 is complete control), Wheat (wheat; Rate 250 g/ha, Postemergence) | Nutsedge plant response rating (purple nutsedge; [1]) | Nutsedge plant response rating (0 to 10 scale) (purple nutsedge; [2]) | Nutsedge plant response rating (purple nutsedge; [3]) | Plant response rating, Nutsedge (purple nutsedge; [4]) | Nutsedge plant response rating (purple nutsedge; [5]) | Nutsedge plant response rating (purple nutsedge; [6]) | Plant response rating (0 to 10; 0 is no effect, 10 is complete control), Nutsedge (purple nutsedge; Rate 250 g/ha, Postemergence) | Nutsedge plant response rating (purple nutsedge; [7]) | Redroot pigweed plant response rating (pigweed; [1]) | Redroot pigweed plant response rating (0 to 10 scale) (pigweed; [2]) | Redroot pigweed plant response rating (pigweed; [3]) | Plant response rating, Redroot pigweed (pigweed; [4]) | Redroot pigweed plant response rating (pigweed; [5]) | Redroot pigweed plant response rating (pigweed; [6]) | Plant response rating (0 to 10; 0 is no effect, 10 is complete control), Redroot pigweed (pigweed; Rate 250 g/ha, Postemergence) | Redroot pigweed plant response rating (pigweed; [7]) | Blackgrass plant response rating (blackgrass; [1]) | Blackgrass plant response rating (0 to 10 scale) (blackgrass; [2]) | Blackgrass plant response rating (blackgrass; [3]) | Plant response rating, Blackgrass (blackgrass; [4]) | Blackgrass plant response rating (blackgrass; [5]) | Blackgrass plant response rating (blackgrass; [6]) | Plant response rating (0 to 10; 0 is no effect, 10 is complete control), Blackgrass (blackgrass; Rate 250 g/ha, Postemergence) | Blackgrass plant response rating (blackgrass; [7]) | Ducksalad plant response rating (duck salad; [8]) | Ducksalad plant response rating (duck salad; [9]) | Ducksalad plant response rating (duck salad; [10]) | Plant response rating, Ducksalad (duck salad; [11]) | Wild oats plant response rating (wild oat; [1]) | Wild oats plant response rating (wild oat; [3]) | Plant response rating, Wild oats (wild oat; [4]) | Wild oats plant response rating (wild oat; [5]) | Wild oats plant response rating (wild oat; [6]) | Plant response rating (0 to 10; 0 is no effect, 10 is complete control), Wild oats (wild oat; Rate 250 g/ha, Postemergence) | Morningglory plant response rating (morningglory; [1]) | Morningglory plant response rating (0 to 10 scale) (morningglory; [2]) | Morningglory plant response rating (morningglory; [3]) | Plant response rating, Morningglory (morningglory; [4]) | Morningglory plant response rating (morningglory; [7]) | Bedstraw plant response rating (bedstraw; [1]) | Bedstraw plant response rating (0 to 10 scale) (bedstraw; [2]) | Bedstraw plant response rating (bedstraw; [3]) | Plant response rating, Bedstraw (bedstraw; [4]) | Bedstraw plant response rating (bedstraw; [5]) | Bedstraw plant response rating (bedstraw; [6]) | Plant response rating (0 to 10; 0 is no effect, 10 is complete control), Bedstraw (bedstraw; Rate 250 g/ha, Postemergence) | Cocklebur plant response rating (cocklebur; [1]) | Cocklebur plant response rating (0 to 10 scale) (cocklebur; [2]) | Cocklebur plant response rating (cocklebur; [3]) | Plant response rating, Cocklebur (cocklebur; [4]) | Cocklebur plant response rating (cocklebur; [5]) | Cocklebur plant response rating (cocklebur; [6]) | Plant response rating (0 to 10; 0 is no effect, 10 is complete control), Cocklebur (cocklebur; Rate 250 g/ha, Postemergence) | Cocklebur plant response rating (cocklebur; [7]) | S. Flatsedge plant response rating (smallflower flatsedge; [8]) | S. Flatsedge plant response rating (smallflower flatsedge; [9]) | S. Flatsedge plant response rating (smallflower flatsedge; [10]) | S. Flatsedge plant response rating (smallflower flatsedge; Rate 500 g/ha, Pre-emergence, flood test species, scale 0 to 10 (0 no effect, 10 complete control)) | Velvetleaf plant response rating (velvetleaf; [1]) | Velvetleaf plant response rating (velvetleaf; [3]) | Plant response rating, Velvetleaf (velvetleaf; [4]) | Velvetleaf plant response rating (velvetleaf; [5]) | Velvetleaf plant response rating (velvetleaf; [6]) | Plant response rating (0 to 10; 0 is no effect, 10 is complete control), Velvetleaf (velvetleaf; Rate 250 g/ha, Postemergence) | B. signalgrass plant response rating (surinam grass; [1]) | B. signalgrass plant response rating (0 to 10 scale) (surinam grass; [2]) | B. signalgrass plant response rating (surinam grass; [3]) | Plant response rating, B. signalgrass (surinam grass; [4]) | B. signalgrass plant response rating (surinam grass; [5]) | B. signalgrass plant response rating (surinam grass; Rate 125 g/ha, Postemergence, scale 0 (no effect) to 10 (complete control)) | Plant response rating, B. signalgrass (surinam grass; Rate 250 g/ha, Postemergence, scale 0 to 10, 0 is no effect, 10 is complete control) | B. signalgrass plant response rating (surinam grass; Rate 500 g/ha, Postemergence, scale 0 to 10, 0 no effect, 10 complete control) | Soybean plant response rating (soybean; [1]) | Soybean plant response rating (0 to 10 scale) (soybean; [2]) | Soybean plant response rating (soybean; [3]) | Plant response rating, Soybean (soybean; [4]) | Soybean plant response rating (soybean; [5]) | Soybean plant response rating (soybean; [6]) | Plant response rating (0 to 10; 0 is no effect, 10 is complete control), Soybean (soybean; Rate 250 g/ha, Postemergence) | Soybean plant response rating (soybean; [7]) | Rape plant response rating (rape; [1]) | Rape plant response rating (0 to 10 scale) (rape; [2]) | Rape plant response rating (rape; [3]) | Plant response rating, Rape (rape; [4]) | Rape plant response rating (rape; [5]) | Rape plant response rating (rape; [6]) | Plant response rating (0 to 10; 0 is no effect, 10 is complete control), Rape (rape; Rate 250 g/ha, Postemergence) | Rape plant response rating (rape; [7]) | Barnyardgrass plant response rating (bamyardgrass; [8]) | Barnyardgrass plant response rating (bamyardgrass; [9]) | Barnyardgrass plant response rating (bamyardgrass; [10]) | Plant response rating, Barnyardgrass (bamyardgrass; [11])
